This assay concerns GCV-resistant pp28-luciferase Towne. Put plainly: GCV-resistant pp28-luciferase HCMV luciferase assay. Format: cell-based, Human Cytomegalovirus. As to conditions: Human betaherpesvirus 5, read-out: Mean EC50 ± SD. Here is the method:
The pp28-luciferase HCMV Towne and a GCV-resistant pp28-luciferase were used. The recombinant viruses express luciferase under the control of the late CMV gene promoter, pp28. Luciferase expression is activated 48–72 hours post infection (hpi). The recombinant viruses provide a highly-sensitive reporter system which correlates with plaque reduction assay. The Towne HCMV strain (ATCC VR-977) was used for plaque reduction, quantitative reverse transcriptase PCR (qRT-PCR), and immunoprecipitation assays. Human herpes virus strains were: luciferase HSV1- KOS/Dlux/oriS [52] and clinical isolates of HSV2. The clinical isolates were provided by the clinical microbiology laboratory with no identifiers that can link to a specific subject. Murid Herpesvirus (MCMV: ATCC VR-1399) was used for infection of mouse embryonic fibroblasts (MEFs) and mice.
Human Foreskin Fibroblasts (HFFs) passage 12–16 (ATCC, CRL-2088) and mouse embryonic fibroblasts (MEFs) passage 9–14 (ATCC, CRL-1658) were grown in Dulbecco's Modified Eagle Medium (DMEM) containing 10% fetal bovine serum (FBS) (Gibco, Carlsbad, CA) in a 5% CO2 incubator at 37°C. […] Luciferase activity was measured 72 h following second cycle infection. […] After incubation at 37°C for 10 days (for HCMV), 3 days for MCMV or 2 days (for HSV), the overlay was removed and plaques were counted after crystal violet staining.

This is an account of results in publication PMC4919066 (PLoS Pathogens, 2016).

Each structure is given as a SMILES string. Counter-ions that a name gives are not always drawn.

A word on the EC50: it is the midpoint of the concentration-response curve. Regarding `CC[C@H]1CN2CCc3cc(OC)c(OC)cc3[C@@H]2C[C@@H]1C[C@H]1NCCc2cc(OC)c(OC)cc21` [emetine, emetine dihydrochloride hydrate], the EC50 worked out at 38 nM.
